Test [1] relates to 35S-ABF4 transgenic plants (line A405). Briefly: ABA dose-response of root growth. Type of test: in vivo. Particulars: Arabidopsis thaliana, 120 h, root elongation 5 days after transfer, read-out: root growth, % of control rate. Here is the method:
(§1) FIG. 2. ABA Sensitivity of 35S-ABF3 and 35S-ABF4 Plants. (A) Growth of transgenic plants on medium containing 0.5 μM ABA. Seeds were germinated and grown for 12 days. (B) Growth of transgenic plants on medium containing 0.25 μM ABA. Seeds were germinated on the medium for 3 days and representative plants are shown. (C) ABA dose-response of germination. Seeds, 6 months old after harvest and pre-chilled at 4° C. for 4 days, were germinated on media containing various concentrations of ABA, and seedlings with fully emerged radicles were counted after 3 days. Experiments were done in triplicates (n=50 each), and the bars show standard errors. (D) ABA dose-response of root growth. Seeds were germinated for 4 days on ABA-free medium and the seedlings (n=6) were transferred to media containing various concentrations of ABA. Root elongation was measured 5 days after the transfer. The experiments were performed more than four times, sometimes using different transgenic lines, and the results were consistent. The small bars represent standard errors. Transgenic lines A319 (ABF3) and A405 (ABF4) were used.
(§2) To see the stage-specificity of ABA response, ABA dose-response was examined during and after germination. […] Likewise, root growth of the 35S-ABF transgenic lines was hypersensitive to ABA (FIG. 2D). At 0.5 μM ABA, wild type root growth was 84% of its control rate, whereas those of 35S-ABF4 and 35S-ABF3 plants were 35% and 51% of their control rates, respectively. At 1 μM ABA, root growth of the 35S-ABF4 plants reduced to 6% and the 35S-ABF3 plants to 37%. […] Wild type plants grew at 62% of the control rate at the same ABA concentration.

The test system of test [2] is 35S-ABF3 transgenic plants (line A319). Put plainly: ABA dose-response of root growth. In kind it is in vivo. To be noted: Arabidopsis thaliana, 120 h, root elongation 5 days after transfer, read-out: root growth, % of control rate. How it is done:
as §1, §2

In test [3] the test system is wild type plants. Put plainly: Germination and growth on ABA-containing medium. Particulars: ABA 0.5 μM or above. Type of test: in vivo, Arabidopsis thaliana. How it is done:
as §1
(§3) To test whether ABF3 or ABF4 overexpression affected ABA sensitivity, 35S-ABF3 and 35S-ABF4 transgenic plants were germinated and grown on media containing various concentrations of ABA. […]

Test [4] relates to 35S-ABF plants. Briefly: Germination and growth on ABA-containing medium. Type of test: in vivo, Arabidopsis thaliana. Particulars: ABA 0.5 μM or above. Here is the method:
as §1, §3

Test [5] relates to 35S-ABF transgenic plants. Put plainly: ABA dose-response of root growth. Type of test: in vivo, Arabidopsis thaliana. Particulars: ABA concentration above 5 μM. Here is the method: as §1, §2
Test [6] concerns wild type plants (Ler). Briefly: ABA dose-response of root growth. In kind it is in vivo, Arabidopsis thaliana. Here is the method:
as §1, §2

Test [7] has as its system wild type plants (Ler). Briefly: ABA dose-response of germination. In kind it is in vivo, Arabidopsis thaliana. Particulars: 0.5 μM ABA, fully emerged radicles counted after 3 days. How it is done: as §1, §2
For test [8], the system named is 35S-ABF4 transgenic plants (line A405). Put plainly: ABA dose-response of germination. In kind it is in vivo, Arabidopsis thaliana. To be noted: 0.5 μM ABA, fully emerged radicles counted after 3 days. How it is done: as §1, §2
Test [9] deals with 35S-ABF3 transgenic plants (line A319). Put plainly: ABA dose-response of germination. Type of test: in vivo, Arabidopsis thaliana. To be noted: 0.5 μM ABA, fully emerged radicles counted after 3 days. Here is the method: as §1, §2
The subject of test [10] is 35S-ABF and wild type plants. Briefly: Effect of ACC and IAA on growth of 35S-ABF versus wild type plants. Also on record: species or system Arabidopsis thaliana. To be noted: in vivo. The source says: According to the studies, ABA-mediated inhibition of germination is negatively regulated by ethylene, whereas ethylene signaling components are required for the ABA inhibition of root growth (Beaudoin et al., 2000; Ghassemian et al., 2000). […] When exposed to progressive drought, new lateral roots take a short and tuberized form. The process, known as ‘drought rhizogenesis’, is impaired not only in the ABA deficient aba-1 and ABA-insensitive abi1-1 mutants but also in the auxin resistant axr1-3 mutant. To test whether the overexpression of ABF3 or ABF4 affected ethylene or auxin sensitivity, we compared the effects of the ethylene precursor 1-aminocyclopropane-1-carboxylic acid (ACC) and indole-3-acetic acid (IAA) on the growth of 35S-ABF and wild type plants. […] However, leaves of 35S-ABF4 plants have a tendency to have epinastic curvature when grown on plates (FIG. 4A), which is generally attributed to ethylene action under stress conditions (Jackson, 1997). […] Thus, the result implies that auxin signaling pathway(s) might have been perturbed in 35S-ABF4 plants.

Test [11] relates to 35S-ABF plants. Briefly: Salt effect on germination and newly germinated seedling growth. Type of test: in vivo, Arabidopsis thaliana. How it is done: (§4) FIG. 3. […] (A) Salt effect on germination. Seeds of Ler, aba1-1, abi1-1, abi2-1, 35S-ABF3 (line A319) and 35S-ABF4 (line A405) were plated after 4 days of cold treatment on media containing 50, 100, or 150 mM NaCl, and germination (fully open cotyledons) was scored after 4 days. Experiments were done in triplicates (n=50 each), and standard errors are smaller than the symbols. (B) Salt effect on newly germinated seedling growth. Seeds of the same transgenic lines were germinated for 4 days on media containing 100 mM of NaCl, KCl or mannitol, and representative seedlings are shown. (C) Glucose response of 35S-ABF transgenic plants. Seeds were germinated and grown for 14 days on the regular growth medium or the same medium supplemented with 3% glucose or mannitol at vertical position. A319, A333, A405, and A406 indicate transgenic lines.
(§5) High concentrations of salts inhibit the germination of Arabidopsis (Werner and Finkelstein, 1995; Leon-Kloosterziel et al., 1996; Quesada et al., 2000; Zhu, 2000). […] To test this, 35S-ABF transgenic plants were germinated on media containing various concentrations of NaCl.
(§6) Plants were grown at 22° C. under long day condition (16 hr light/8 hr dark cycle) aseptically or on soil. […]

Test [12] relates to 35S-ABF transgenic lines. Put plainly: Glucose response of seedlings. Type of test: in vivo, Arabidopsis thaliana. Particulars: 3% mannitol; both wild type and 35S-ABF transgenic plants. How it is done: as §4
Plants were grown at 22° C. under long day condition (16 hr light/8 hr dark cycle) aseptically or on soil. For soil growth, seeds were sown on 1:1:1 mixture of vermiculite, perlite and peat moss irrigated with 0.1% Hyponex, placed at 4° C. for 4 days in the dark to break residual dormancy, and transferred to normal growth conditions. Unless otherwise stated, the plants were watered once a week. […]

Test [13] has as its system wild type plants. To be noted: NaCl below 100 mM; wild type (also aba1, abi1, abi2 mutants). How it is done:
as §4, §5, §6

In the case of `CC1=CC(=O)CC(C)(C)[C@@]1(O)/C=C/C(C)=C\C(=O)O` [ABA, abscisic acid], the activity at 0.5 µM is 35% in [1] (0.5 μM ABA); 51% in test [2] (0.5 μM ABA); 84% in [6] (Arabidopsis thaliana, 120 h, 0.5 μM ABA, root elongation 5 days after transfer, read-out: root growth, % of control rate). The activity at 1 µM in test [1] (1 μM ABA) stood at 6%; in test [2] (1 μM ABA) it was 37%; in test [6] (Arabidopsis thaliana, 120 h, 1 μM ABA, root elongation 5 days after transfer, read-out: root growth, % of control rate) it was 62%. Further, the “growth after radicle emergence” value was “continued to grow and develop” in [3]; “completely arrested” in test [4]. Also, the root growth result in test [5] is “almost completely arrested”; in [6] (ABA concentration above 5 μM) it was “still continued to grow”. In test [7], this compound returned a germination of 80%. Moreover, the germination efficiency in [8] is on record as 28%; in [9] it was 8%.
Regarding `O=C(O)Cc1c[nH]c2ccccc12` [IAA, indole-3-acetic acid], the “difference in growth response between 35S-ABF and wild type plants” value in [10] is given as “did not see any differences”.
For the compound `NC1(C(=O)O)CC1` [ACC, 1-aminocyclopropane-1-carboxylic acid], in test [10], the “difference in growth response between 35S-ABF and wild type plants” value is “did not see any differences”.
For `OC[C@@H](O)[C@@H](O)[C@H](O)[C@H](O)CO` [mannitol], in [11] (mannitol, same or twice the concentration (100 mM)), the “response of germination/seedling growth” value is listed as “normal”. Besides, the growth inhibition entry in test [12] is on record as “significantly but similarly”.
On to `[Cl-].[Na+]` [NaCl], for which the germination result in test [13] was “not affected”. In test [11] (100 mM NaCl), the germination and growth result is recorded as “significantly affected”.

These data come from patent US20050244971A1, “Transgenic plants with enhanced stress tolerance” (KOREA KUMHO PETROCHEMICAL CO., LTD., priority 2002, published 2005).
